In one series the test system is LIMK. Briefly: Western blot of p-cofilin in NF1−/− MEFs. The series is classed as cell-based, mouse. As to the method: FIG. 3A-B presents an immunoblot and graphical presentation of immunoblots. […] Normalization was performed using beta-tubulin. Average inhibition was calculated as a percentage of control (mean±SD, n=3,*P<0.05; **P<0.01 compared to control (Student's t-test)).
NF1−/− MEFs were plated at a density of lx 10^5 or 5×10^5 cells in 6-well plates or 10-cm dishes, respectively, and were allowed to grow overnight in a medium containing 10% FCS. […] The cells were then lysed with solubilization buffer (50 mMTris-HCl at a pH of 7.6, 20 mM MgCl2, 200 mM NaCl, 0.5% NP40, 1 mM Dithiothreitol, and protease inhibitors), and the lysate (50 μg) was subjected to SDS-PAGE and then immunoblotted with one of the following antibodies: anti-p-cofilin (1:1000), anti-cofilin (1:1000), anti-β-tubulin (1:500). The immunoblots were then exposed to peroxidase-goat anti-rabbit IgG (1:2500), and protein bands were visualized by enhanced chemiluminescence and quantified by densitometry (EZ-Qant). Rabbit anti-cofilin and p-cofilin (Ser3) were from Cell Signaling Technolgy (Beverly, Mass.); mouse anti-β-tubulin antibody was from Sigma-Aldrich; peroxidase-goat anti-mouse IgG and peroxidase-goat anti-rabbit IgG were from Jackson ImmunoResearch Laboratories (West Grove, Pa.).
It has been previously shown that the levels of phosphorylated cofilin (p-cofilin) are high in NF1^−/− Mouse Embryonic Fibroblasts (MEFs). Thus, these cells were used herein to examine the impact of compound 1 on phosphorylation of cofilin.
The cells were lysed and subjected to immunoblotting with anti-p-cofilin, anti-cofilin, and anti-β-tubulin (as loading control) antibodies. […] These findings, taken together, support the predicted LIMK model as well as the predicted LIMK inhibitor.
(In general: In western blotting, separated proteins are transferred to a membrane and probed.)

Series [1] concerns NF1−/− MEFs. Description: Growth (cell number) of NF1−/− MEFs, direct counting after 5 days. The series is classed as cell-based, mouse. The conditions noted are these: for inhibition at 5 µM / inhibition at 25 µM: Mus musculus. As to the method:
Cells were directly counted and typical inhibition curves are shown (means±SEM, n=9; **P<0.01, ***P<0.001).
The cells were plated in 24-well plates at a density of 5×10^3 cells per well.

Series [2] deals with NF1−/− MEFs. Briefly: Actin stress fibers, rhodamine-phalloidin staining of NF1−/− MEFs. It counts as cell-based, mouse. As to the method:
MEFs were seeded on glass coverslips in 6-well plates at the densities of 2.5×10^4 cells per well. […] Cells were further incubated for 24 hours and were then fixed, permeabilized, and washed. Rhodamine-labeled phalloidin was added for 30 minutes and the slides were then washed, mounted, and imaged. F-actin was visualized and then photographed under an LSM510 confocal microscope (×63 objective) fitted with rhodamine filters. Statistical analysis was performed by counting 100 cells from each slide, with or without stress fibers, under an Olympus fluorescence microscope.

In series [3] the test system is NF1−/− MEFs. Briefly: Scratch-induced (wound-healing) migration assay, NF1−/− MEFs. It counts as cell-based, mouse. The conditions noted are these: within 3 hours, compound 1 at 50 μM; untreated cells 50%. On the procedure: (§1) FIG. 6 is a graph showing gap width in NF1−/− MEFs cells examined (mean±SD, n=9), expressed as a percentage of the gap at the time of scratching.
(§2) Scratch-induced migration assay was performed as described in Goldberg et al.. Briefly, NF1-knockout and wt MEFs were seeded on collagen-covered 35-mm plates at a cell density of 1.5×10^5 per plate. […] Three areas were scratched in each plate, creating three gaps of similar widths. The media and the inhibitors were then replenished. Immediately thereafter, and at the time points indicated in the Examples section, phase-contrast images of the plates were obtained with a CCD camera connected to an Olympus fluorescence microscope (×10 objective). The region imaged was marked at time “zero” in order to enable photographing the same area at the different time points, and so that a specific population of migrating cells may be examined. The widths of the gaps treated with the inhibitor were measured at different time points, using the Image-Pro Plus software. […] Statistical analysis of the results was performed, of either the mean gap width (in arbitrary units) of compound 1-treated cells relative to the control at different time points (means±SD, n=9) or the percentage of migration, calculated as the width of the gap still open at the final time point, expressed as a percentage of the gap size at zero time for each treatment (means±SD, n=9). […]

For the next series, the system named is wt MEFs. Description: Scratch-induced (wound-healing) migration assay, wt MEFs. It counts as cell-based, mouse. The conditions noted are these: compound 1 at 50 μM. On the procedure: as §1, §2
For series [4], the system named is NF1−/− MEFs. Description: Anchorage-independent growth in soft agar. It counts as cell-based, mouse. The conditions noted are these: 25 and 50 μM, 14 days. As to the method: FIG. 7B is a graph showing a statistical analysis of the anchorage-independent growth experiment. Columns, mean (n=5); bars, SD; *P<0.001.
Noble agar 2% (Difco, Detroit, Mich.) was mixed with DMEM×2 medium, containing 10% FCS, 4 mM L-glutamine, 200 units/mL penicillin, and 0.2 mg/mL streptomycin. The mixture (50 μL) was poured into 96-well plates to provide the agar base at a final agar concentration of 1%. […] The cells were incubated for 14 days and then stained for 4 hours with 1 mg/mL 344,5-dimethylthiazol-2-yl)-2 5-diphenyltetrazolium bromide (MTT; Sigma-Aldrich, St. Louis, Mo.), which stains active mitochondria in living cells, and the colonies were imaged. Colonies larger than 0.16 mm^2 (mean±SD, n=5) were counted using Image-Pro Plus software (Media Cybernetics, Carlsbad, Calif.). The average percentage of colonies in each group (means±SD, n=5) was calculated by dividing the number of colonies of a particular treatment and specific group size by the number of colonies of the same size in the corresponding untreated control group.

In another series the test system is U87-glioblastoma. Description: Growth inhibition of U87 cells. The series is classed as cell-based. The conditions noted are these: Homo sapiens, U-87 MG, 120 h; U87, 5 days; read-out: IC50, reduction of cell number. An excerpt:
(§3) Cells were directly counted and typical inhibition curves are shown.

A further series has as its system ST-88-swanoma. Briefly: Growth inhibition of ST-88 cells. The conditions noted are these: 120 h; ST-88, 5 days; read-out: IC50, reduction of cell number. The series is classed as cell-based.
Source text: as §3

Series [5] has as its system Panc-1-pancreatic cancer tumor cell line. Briefly: Growth inhibition of Panc-1 cells. It counts as cell-based. The conditions noted are these: Homo sapiens, 120 h; Panc-1, 5 days; read-out: IC50, reduction of cell number.
Source text: as §3

A short description of series [6]: In-vivo toxicity, single oral dose in nude mice. To be noted: single oral dose 20-100 mg/kg in 0.5% CMC, followed for 2 weeks. An excerpt: The mice were weighted and followed for 14 days after the administration. Average weight of treated mice is presented. (n=2).
The mice were followed for 2 weeks to measure toxic effects.

Another series deals with Panc-1 tumor. Description: Panc-1 human pancreatic tumor growth in nude mice. The series is classed as in vivo, mouse. To be noted: for average tumor size: control group 745. From the text:
FIG. 11A—Panc-1 cells were implanted s.c. in the right flank of athymic nude mice. After 7 days, the mice were separated randomly into one vehicle-treated control group and two T-56-LIMKi groups (n=8). […] Tumor volumes (means±S.E.M, * p-value<0.05) during the experiment period are shown. FIG. 11B—The mice were weighted at indicated time point. Presented are average weights of each group (grams±stdev).
Nude CD1-Nu mice (6 weeks old) were housed in barrier facilities on a 12-h light/dark cycle. Food and water were supplied ad libitum. On day zero, 5×10^6 Panc-1 cells in 0.1 ml of PBS were implanted s.c. just above the right femoral joint When tumor volumes reached values of 0.06-0.07 cm3 (day 0 of compound-1 treatment), the mice were randomly separated into three groups. Control mice received vehicle; compound-1-treated mice received 30 or 60 mg/kg T56-LIMKi (oral administration of 0.1 ml with 0.5% CMC daily). Tumor volume was calculated as (length×width)×[(length+width)÷2].
The effects of compound ion human pancreatic tumor growth in nude mice was examined, i.e., on cell transformation in an in vivo model. Mice received 5×10^6 cells subcutaneously (s.c.) in the right flank. […] By day 31, 4 out of 8 tumors in the 60 mg/kg treated group disappeared completely.

Results on three molecules are retold here after patent US20150238466A1, “LIM KINASE INHIBITORS” (RAMOT AT TEL-AVIV UNIVERSITY LTD., priority 2012, published 2015).

Values joined by “and” are separate entries in the source; they are usually repeats but may differ in a detail not shown here. Equal values may be shown once.

Take `Cc1cc(C(=O)Nc2cccc(C(=O)Nc3cccc(C(F)(F)F)c3)c2)on1` [compound 1]: the “inhibition of cofilin phosphorylation by LIMK” value in the series with LIMK (50 μM) was “about 50%”. Moreover, in the series on LIMK (2 hours, NF1−/− MEFs), the “amounts of total cofilin” value is “did not affect”. Moreover, in the series on LIMK (compound 1 at 10-50 μM, 2 hours, serum-starved NF1−/− MEFs), the level of p-cofilin result is “reduced”. The inhibition at 5 µM in the series on NF1−/− MEFs [1] (compound 1 at 5 μM in the absence of FTS) turned out to be 13%; in the series on NF1−/− MEFs [1] (compound 1 at 5 μM in the presence of FTS) it was 60%. The inhibition at 25 µM in the series on NF1−/− MEFs [1] (compound 1 at 25 μM in the absence of FTS) was 51%; with NF1−/− MEFs [1] (compound 1 at 25 μM in the presence of FTS), 85.5%. The “reduction in cell proliferation” value in the series on NF1−/− MEFs [1] (compound 1 at 50 μM) was found to be 70%. Further, the “decrease in the number of cells exhibiting stress fibers” value in the series with NF1−/− MEFs [2] (compound 1 at 50 μM) was 26%±7.7% and 30%. This molecule returned a gap closed in the series on NF1−/− MEFs [3] of 10%. For the same molecule, the “mobility of wt MEFs” value in the series with wt MEFs is “not affected”. Moreover, the “colony formation in soft agar” value in the series on NF1−/− MEFs [4] is reported as “inhibited in a dose-dependent manner”. The IC50 (with U87-glioblastoma; with ST-88-swanoma; in series [5]) was approximately 25 µM throughout. In series [6], the body weight result is recorded as “no weight lost was detected”. Also, the “toxic effects (appearance of mice)” value in series [6] is “looked normal at all doses”; in series [6] (listed as T56-LIMKi) it was “not toxic”. In addition, in the series on Panc-1 tumor (60 mg/kg daily oral), the “significance of the reduction of tumor volume” value is recorded as “significant from day 18”. Also, the mouse weight entry in the series with Panc-1 tumor (30 or 60 mg/kg daily oral) is “not affected”. In addition, in the series with Panc-1 tumor (30 or 60 mg/kg daily oral), the signs of cytotoxicity entry is listed as “no signs of cytotoxicity”. Also, the average tumor size in the series on Panc-1 tumor (Day 22, 30 mg/kg daily oral) is on record as 488 mm^3; with Panc-1 tumor (Day 22, 60 mg/kg daily oral), 268 mm^3. Besides, the “tumors that disappeared completely” value with Panc-1 tumor (by day 31, 60 mg/kg daily oral) is listed as 4 out of 8.
Turning to `CC(C)C(=O)Nc1ncc(-c2cc(C(F)F)nn2-c2c(Cl)cccc2Cl)s1` [BMS-5, N-{5-(2-(2,6-dichloro-phenyl)-5-difluoromethyl-2H-pyrazol-3-yl)-thiazol-2-yl}-isobutyramide, reference compound], in the series with LIMK (similar experiment, 2 hours, NF1−/− MEFs), the “reduction of p-cofilin level, potency compared with compound 1” value is given as “more potent than compound 1”.
As for `CC(C)=CCC/C(C)=C/CC/C(C)=C/CSc1ccccc1C(=O)O` [FTS, S-trans, trans-farnesyl thiosalicyclic acid, reference compound], the growth inhibition in the series with NF1−/− MEFs [1] (FTS alone (zero compound 1)) is reported as 33%±1.6%. In addition, in the series on NF1−/− MEFs [2] (FTS alone), the “decrease in stress fiber formation” value is recorded as 20%±5.6%.

As a reminder, the inhibition is the percentage by which the read-out fell short of the control. The IC50 is the concentration needed to halve the response being measured.
